# Measured values reported in PubChem BioAssay AID1159560 (GlaxoSmithKline (GSK), 2015).
# The source made the active and inactive calls. No rule for the calls is given here.
# Test system: Leishmania donovani growth inhibition
# Experiment: antileishmanial activity against L. donovani parasites (AID 1159560);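 also: parasites exposed to compound for 72 h before the viability read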
row,SMILES,IC50
1,O=C(Nc1cccc(S(=O)(=O)Nc2ccc(Br)cc2)c1)c1ccc([N+](=O)[O-])s1,0.79 µM
2,CC(C)(C)C(=O)NCCc1csc(-c2ccc(F)cc2)n1,> 50 µM (inactive)
3,CCc1nn(-c2ncc(F)c(NC(C)C)n2)c(N)c1C1CCCCC1,3.2 µM
4,Fc1ccccc1N1C[C@H]2CCN(c3cccnc3)C[C@H]2C1,13 µM
5,OC1CCC(Nc2nccc(-c3sc(C4CCOCC4)nc3-c3ccc(F)c(F)c3)n2)CC1 (centres undefined),3.2 µM
6,CN1CCN(c2nc(-c3ccc(Cl)cc3)c3c(N)n(C)nc3n2)CC1,> 50 µM (inactive)
7,COc1ccc(Cl)cc1CC(=O)Nc1n[nH]c(-c2ccccn2)n1,4 µM
8,NC(=O)c1cc(F)ccc1Nc1nc(NC2CCC(O)CC2)ncc1Cl (centres undefined),3.2 µM
9,O=C(NCC(c1cccnc1)N1CCc2ccccc2C1)C(=O)Nc1cccc(Cl)c1 (centres undefined),1.3 µM
10,Cc1[nH]c2ccccc2c(=O)c1Cc1c(C)[nH]c2ccccc2c1=O,20 µM
11,Cc1cc(C)nc(N2CCC(N(Cc3cccnc3)C(=O)c3cccc(C#N)c3)CC2)n1,5 µM
12,Clc1ccc(Sc2cnccc2N2CCOCC2)cc1,7.9 µM
13,COc1ccc(S(=O)(=O)NCc2ccc(-c3ccc(CN(C)CCO)cc3)cc2)cc1,> 50 µM (inactive)
14,c1ccc(-c2nc(NC3CCCCC3)cc(C3CC3)n2)nc1,0.79 µM
15,O=C(NCCNc1noc(-c2ccc([N+](=O)[O-])cc2)n1)c1ccc(Cl)cc1,> 50 µM (inactive)
16,O=C(Nc1ccccc1C(=O)Nc1ccccn1)c1ccco1,> 50 µM (inactive)
17,N#Cc1cccc(CN2CCC(N(Cc3cccnc3)C(=O)c3cc(F)c(F)cc3F)CC2)c1,> 50 µM (inactive)
18,Cc1[nH]nc(C(F)(F)F)c1NC(=O)CCn1cc(Cl)c([N+](=O)[O-])n1,> 50 µM (inactive)
19,CCOc1cc(NCCCN2CCN(C)CC2)c2ncccc2c1,40 µM
20,CCc1c(C)nc(-n2nc(C)cc2NC(=O)COc2ccccc2F)[nH]c1=O,0.13 µM
21,NCc1csc(Nc2cc(Oc3ccccc3)ncn2)n1,> 50 µM (inactive)
22,NS(=O)(=O)c1ccc(Nc2ncc3cccc(OC4CCNCC4)c3n2)cc1,40 µM
23,COc1ccc(OC)c2c(=O)c(Cc3ccccc3)c(C)[nH]c12,0.4 µM
24,O=C(NCc1nnc2n1CCCCC2)c1ccc(-c2ccc(F)cc2)o1,> 50 µM (inactive)
25,c1ccc(Nc2nc3ccccc3[nH]2)nc1,25 µM
26,Nc1nc(-c2ccccn2)nc(-n2nc(-c3cccc(C(F)(F)F)c3)cc2N)n1,10 µM
27,C=CCN(Cc1cccs1)C(=O)CSc1nnc(-c2ccc3c(c2)OCO3)o1,6.3 µM

row,SMILES,IC50
1,Cc1occc1C(=O)Nc1ccccc1C(=O)Nc1nccs1,> 50 µM (inactive)
2,CC(CNS(=O)(=O)c1ccc(OC(F)F)cc1)c1ccc(NC(=O)c2ccncc2)cc1 (centres undefined),> 50 µM (inactive)
3,Cc1nc(-c2ccc3c(c2)OCO3)sc1C(=O)NCc1ccc2c(c1)OCO2,2 µM
4,Cc1cc(Br)cc(C(=O)c2c(C(C)C)c(=O)[nH]c(=O)n2Cc2ccnc(N)c2)c1,> 50 µM (inactive)
5,Cc1[nH]nc2c1C(c1ccc(OCc3ccccc3F)cc1)SCC(=O)N2 (centres undefined),40 µM
6,CC(C(=O)Nc1ccccc1F)N(C)CC(=O)Nc1cccc2ccccc12 (centres undefined),50 µM
7,O=C(NCC(c1cccs1)N1CCOCC1)c1ccc([N+](=O)[O-])o1 (centres undefined),32 µM
8,Cc1cccnc1CN1CCN(CCCOc2ccc(-c3ccc(C(N)=O)cc3)cc2)CC1,> 50 µM (inactive)
9,CC1CCCN(S(=O)(=O)c2ccc(C(=O)Nc3nc(-c4ccccn4)cs3)cc2)C1 (centres undefined),1.6 µM
10,COc1ccc(Cc2nc(-c3ncc4cccnc4c3O)n[nH]2)cc1OC,0.32 µM
11,CC(Cn1ccnc1)NC(=O)C=Cc1ccc(Cl)cc1 (centres undefined),> 50 µM (inactive)
12,O=C(Nc1ccc(S(=O)(=O)N2CCCC2)cc1)c1ccc([N+](=O)[O-])s1,7.9 µM
13,COc1cccc(C(=O)[C@H]2C[C@@H]2CN(Cc2cccnc2)Cc2cccnc2)c1,0.16 µM
14,COc1ccc(OC)c(S(=O)(=O)N(Cc2c(F)cccc2F)[C@@H]2CCN(C#N)C2)c1,16 µM
15,Cc1cc(C)c(C#N)c(SCC(=O)c2ccc3c(c2)OCO3)n1,> 50 µM (inactive)
16,CCc1ccc2nc(NC(=O)c3cc(N4CCOCC4)ccn3)sc2c1,2 µM
17,NC(=O)c1ncccc1Nc1nc(NC2CCC(O)CC2)ncc1Br (centres undefined),1.3 µM
18,CCn1c(NC(=O)Cc2ccc(F)cc2)nc2ccccc21,10 µM
19,Oc1c(-c2n[nH]c(CCc3ccccc3)n2)ncc2cccnc12,0.32 µM
20,O=C(Nc1ncc([N+](=O)[O-])s1)C1CC1,40 µM
21,CS(=O)(=O)c1ccc(Nc2nccc(-c3cnn4ncccc34)n2)cc1,0.79 µM
22,Cc1c(C#N)c([N+](=O)[O-])nn1Cc1cccc(Cl)c1Cl,> 50 µM (inactive)
23,CCN(CC)c1nc(N(C)C)nc2c1CN(Cc1ccccc1)CC2,7.9 µM
24,COc1ccc(C(=O)Nc2ccc(NC(=O)CO)cc2)cc1,> 50 µM (inactive)
25,COCCn1c(-c2ccccc2)cnc1NCc1ccccc1OC,> 50 µM (inactive)
26,Cc1ccc2nc(N(Cc3cccnc3)C(=O)CCc3ccccc3)sc2c1,25 µM
27,CCC1Oc2cc(S(=O)(=O)N(C)CC(=O)N3CCc4ccccc4C3)c(C)cc2NC1=O (centres undefined),> 50 µM (inactive)
